{"source": "patent US7928107B2", "about": "“Quinazolines useful as modulators of ion channels” (Vertex Pharmaceuticals Incorporated, priority 2004, dated 2011)", "note": "pIC50: −log10 of the molar value."}
{"molecular_target": "NaV 1.8 channel (Homo sapiens, UniProt Q9Y5Y9)", "sequence (Q9Y5Y9 whole entry)": "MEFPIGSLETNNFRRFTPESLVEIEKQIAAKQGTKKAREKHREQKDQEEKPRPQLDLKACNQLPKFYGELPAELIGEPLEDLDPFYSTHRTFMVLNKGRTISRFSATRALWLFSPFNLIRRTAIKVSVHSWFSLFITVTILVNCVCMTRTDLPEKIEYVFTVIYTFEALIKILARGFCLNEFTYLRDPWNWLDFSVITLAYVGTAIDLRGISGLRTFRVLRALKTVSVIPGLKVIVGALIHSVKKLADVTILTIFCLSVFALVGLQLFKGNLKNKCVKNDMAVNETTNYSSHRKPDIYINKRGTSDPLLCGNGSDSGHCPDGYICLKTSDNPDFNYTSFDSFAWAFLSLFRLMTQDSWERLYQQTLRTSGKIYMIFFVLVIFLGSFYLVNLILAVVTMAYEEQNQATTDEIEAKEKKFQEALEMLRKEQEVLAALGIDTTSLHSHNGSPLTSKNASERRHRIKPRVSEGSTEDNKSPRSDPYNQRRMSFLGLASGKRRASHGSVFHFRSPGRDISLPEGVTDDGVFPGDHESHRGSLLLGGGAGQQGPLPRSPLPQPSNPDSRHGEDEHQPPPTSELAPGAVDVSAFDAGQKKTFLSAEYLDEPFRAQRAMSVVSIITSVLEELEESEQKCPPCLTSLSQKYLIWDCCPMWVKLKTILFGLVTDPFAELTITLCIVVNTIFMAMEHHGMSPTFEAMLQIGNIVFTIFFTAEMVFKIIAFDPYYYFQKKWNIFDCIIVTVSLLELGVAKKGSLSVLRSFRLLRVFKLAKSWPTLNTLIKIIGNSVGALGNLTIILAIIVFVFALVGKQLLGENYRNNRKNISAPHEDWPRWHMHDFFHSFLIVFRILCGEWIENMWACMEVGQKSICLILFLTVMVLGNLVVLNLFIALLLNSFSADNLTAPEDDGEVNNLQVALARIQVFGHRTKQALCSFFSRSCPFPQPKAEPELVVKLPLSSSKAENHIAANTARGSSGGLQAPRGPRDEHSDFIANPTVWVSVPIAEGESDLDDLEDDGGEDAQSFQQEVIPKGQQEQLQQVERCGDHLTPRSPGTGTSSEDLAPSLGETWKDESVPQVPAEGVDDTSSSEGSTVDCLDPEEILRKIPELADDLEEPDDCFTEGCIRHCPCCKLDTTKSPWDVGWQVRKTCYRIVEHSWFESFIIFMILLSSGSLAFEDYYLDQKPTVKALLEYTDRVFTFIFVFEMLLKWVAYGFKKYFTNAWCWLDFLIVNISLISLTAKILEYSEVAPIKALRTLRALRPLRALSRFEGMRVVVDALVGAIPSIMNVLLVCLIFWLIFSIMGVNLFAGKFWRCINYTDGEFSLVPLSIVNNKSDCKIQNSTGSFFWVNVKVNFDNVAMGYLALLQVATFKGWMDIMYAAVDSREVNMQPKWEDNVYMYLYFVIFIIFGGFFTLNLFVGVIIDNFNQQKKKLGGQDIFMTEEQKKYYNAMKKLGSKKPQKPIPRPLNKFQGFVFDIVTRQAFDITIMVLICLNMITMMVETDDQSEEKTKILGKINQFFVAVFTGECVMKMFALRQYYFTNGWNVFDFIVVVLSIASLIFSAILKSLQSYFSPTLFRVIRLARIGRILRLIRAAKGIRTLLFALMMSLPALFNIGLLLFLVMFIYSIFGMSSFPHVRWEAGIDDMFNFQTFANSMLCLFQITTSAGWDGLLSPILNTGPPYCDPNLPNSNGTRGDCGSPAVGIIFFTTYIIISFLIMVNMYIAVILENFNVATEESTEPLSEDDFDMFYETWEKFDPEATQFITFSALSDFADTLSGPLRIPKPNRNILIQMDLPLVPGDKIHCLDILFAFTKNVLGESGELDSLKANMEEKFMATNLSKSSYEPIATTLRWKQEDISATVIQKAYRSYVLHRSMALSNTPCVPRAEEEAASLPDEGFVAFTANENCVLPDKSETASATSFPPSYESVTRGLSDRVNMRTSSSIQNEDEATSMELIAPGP", "assay": "Activity against NaV 1.8 channel (optical membrane potential assay)", "format": "cell-based", "experimental": "Compounds of the invention are useful as antagonists of voltage-gated sodium ion channels. Antagonist properties of test compounds were assessed as follows. Cells expressing the NaV of interest were placed into microtiter plates. After an incubation period, the cells were stained with fluorescent dyes sensitive to the transmembrane potential. The test compounds were added to the microtiter plate. The cells were stimulated with either a chemical or electrical means to evoke a NaV dependent membrane potential change from unblocked channels, which was detected and measured with trans-membrane potential-sensitive dyes. Antagonists were detected as a decreased membrane potential response to the stimulus. The optical membrane potential assay utilized voltage-sensitive FRET sensors described by Gonzalez and Tsien (See, Gonzalez, J. E. and R. Y. Tsien (1995) “Voltage sensing by fluorescence resonance energy transfer in single cells” Biophys J 69(4): 1272-80, and Gonzalez, J. E. and R. Y. Tsien (1997) “Improved indicators of cell membrane potential that use fluorescence resonance energy transfer” Chem Biol 4(4): 269-77) in combination with instrumentation for measuring fluorescence changes such as the Voltage/Ion Probe Reader (VIPR®) (See, Gonzalez, J. E., K. Oades, et al. (1999) “Cell-based assays and instrumentation for screening ion-channel targets” Drug Discov Today 4(9): 431-439).\n24 hours before the assay on VIPR, CHO cells endogenously expressing a NaV1.2 type voltage-gated NaV are seeded in 96-well poly-lysine coated plates at 60,000 cells per well. Other subtypes are performed in an analogous mode in a cell line expressing the NaV of interest. • 1) On the day of the assay, medium is aspirated and cells are washed twice with 225 μL of Bath Solution #2 (BS#2). • 2) A 15 uM CC2-DMPE solution is prepared by mixing 5 mM coumarin stock solution with 10% Pluronic 127 1:1 and then dissolving the mix in the appropriate volume of BS#2. • 3) After bath solution is removed from the 96-well plates, the cells are loaded with 80 μL of the CC2-DMPE solution. Plates are incubated in the dark for 30 minutes at room temperature. • 4) While the cells are being stained with coumarin, a […] solution in BS#2 is prepared. In addition to DiSBAC2(3), this solution should contain 0.75 mM ABSCl and […] (prepared from 10 mM EtOH stock, Sigma #V-5754). • 5) After 30 minutes, CC2-DMPE is removed and the cells are washed twice with 225 μL of BS#2. As before, the residual volume should be 40 μL. • 6) Upon removing the bath, the cells are loaded with 80 μL of the DiSBAC2(3) solution, after which test compound, dissolved in DMSO, is added to achieve the desired test concentration to each well from the drug addition plate and mixed thoroughly. The volume in the well should be roughly 121 μL. The cells are then incubated for 20-30 minutes. • 7) Once the incubation is complete, the cells are ready to be assayed on VIPR® with a sodium add back protocol. 120 μL of Bath solution #1 is added to stimulate the NaV dependent depolarization. […] was used as an antagonist positive control for block of the NaV channel.\nData are analyzed and reported as normalized ratios of background-subtracted emission intensities measured in the 460 nm and 580 nm channels. Background intensities are then subtracted from each assay channel. Background intensities are obtained by measuring the emission intensities during the same time periods from identically treated assay wells in which there are no cells. The response as a function of time is then reported as the ratios obtained using the following formula: […]\nThe data is further reduced by calculating the initial (Ri) and final (Rf) ratios. These are the average ratio values during part or all of the pre-stimulation period, and during sample points during the stimulation period. The response to the stimulus R=Rf/Ri is then calculated. […]"}
{"smiles": "Cc1ccc2c(N3CC[C@@H](NC(=O)c4cccc(C#N)c4)C3)nc(-c3ccccc3O)nc2c1", "note": "[Example 327, 3-Cyano-N—((R)-1-(2-(2-hydroxyphenyl)-7-methylquinazolin-4-yl)pyrrolidin-3-yl)benzamide]", "pIC50": "< 5.00"}
{"smiles": "Cc1ccc2c(N3CCC(NC(=O)[C@H]4CCCO4)CC3)nc(-c3ccccc3O)nc2c1", "note": "[Example 283]", "pIC50": "> 5.70"}
{"smiles": "CC(C)C[C@@H](O)C(=O)N1CCN(c2nc(-c3ccccc3O)nc3ccc(C#N)cc23)CC1", "note": "[Example 142, 4-[4-((R)-2-Hydroxy-4-methyl-pentanoyl)-piperazin-1-yl]-2-(2-hydroxy-phenyl)-quinazoline-6-carbonitrile]", "pIC50": "5.00 to 5.70"}
{"smiles": "CC(O)(C(=O)NC1CCN(c2nc(-c3ccccc3O)nc3ccccc23)CC1)C(F)(F)F", "note": "(centres unmarked) [Example 239, 2-(Trifluoromethyl)-2-hydroxy-N-(1-(2-(2-hydroxyphenyl)quinazolin-4-yl)piperidin-4-yl)propanamide]", "pIC50": "< 5.00"}
{"smiles": "Cc1ccc2c(N3CCC(CNC(=O)OC(C)C)CC3)nc(-c3ccccc3O)nc2c1", "note": "[Example 279]", "pIC50": "5.00 to 5.70"}
{"smiles": "CCCCC(O)C(=O)NC1CCN(c2nc(-c3ccccc3O)nc3ccccc23)CC1", "note": "(centres unmarked) [Example 238, 2-Hydroxy-N-(1-(2-(2-hydroxyphenyl)quinazolin-4-yl)piperidin-4-yl)hexanamide]", "pIC50": "< 5.00"}
{"smiles": "Cc1ccc2c(N3CCCC(C(=O)NCC4CCCO4)C3)nc(-c3ccccc3O)nc2c1", "note": "(centres unmarked) [Example 230, N-((Tetrahydrofuran-2-yl)methyl)-1-(2-(2-hydroxyphenyl)-7-methylquinazolin-4-yl)piperidine-3-carboxamide]", "pIC50": "5.00 to 5.70"}
{"smiles": "O=C(NC[C@@H]1CCN(c2nc(-c3ccccc3O)nc3ccc(F)cc23)C1)O[C@@H]1CCOC1", "note": "[Example 355, (R)-Tetrahydrofuran-3-yl ((S)-1-(6-fluoro-2-(2-hydroxyphenyl)quinazolin-4-yl)pyrrolidin-3-yl)methylcarbamate]", "pIC50": "< 5.00"}
{"smiles": "Cc1ccc2c(N3CCC(NC(=O)[C@H](O)CC(C)(C)C)CC3)nc(-c3ccccc3O)nc2c1", "note": "[Example 232, (2R)-2-Hydroxy-N-(1-(2-(2-hydroxyphenyl)-7-methylquinazolin-4-yl)piperidin-4-yl)-4,4-dimethylpentanamide]", "pIC50": "5.00 to 5.70"}
{"smiles": "Cc1ccc2c(N3CC[C@@H](NC(=O)C4CCC(=O)N4)C3)nc(-c3ccccc3O)nc2c1", "note": "(stereo partly drawn) [Example 315, (R)-5-Oxo-pyrrolidine-2-carboxylic acid {1-[2-(2-hydroxy-phenyl)-7-methyl-quinazolin-4-yl]-pyrrolidin-3-yl}-amide]", "pIC50": "< 5.00"}
{"smiles": "C[C@@H](O)CC(=O)N1CCN(c2nc(-c3ccccc3O)nc3ccccc23)CC1", "note": "[Example 173, (R)-3-Hydroxy-1-(4-(2-(2-hydroxyphenyl)quinazolin-4-yl)piperazin-1-yl)butan-1-one]", "pIC50": "< 5.00"}
{"smiles": "Cc1ccc2c(N3CC(CNC(=O)OC(C)C)C3)nc(-c3ccccc3O)nc2c1", "note": "[Example 420]", "pIC50": "> 5.70"}
{"smiles": "Cc1ccc2c(N3CC(C(=O)NCc4cccnc4)C3)nc(-c3ccccc3O)nc2c1", "note": "[Example 402, 1-(2-(2-Hydroxyphenyl)-7-methylquinazolin-4-yl)-N-((pyridin-3-yl)methyl)azetidine-3-carboxamide]", "pIC50": "< 5.00"}
{"smiles": "Cc1ccc2c(N3CC[C@@H](NC(=O)OCc4cccnc4)C3)nc(-c3ccccc3O)nc2c1", "note": "[Example 319, (Pyridin-3-yl)methyl (R)-1-(2-(2-hydroxyphenyl)-7-methylquinazolin-4-yl)pyrrolidin-3-ylcarbamate]", "pIC50": "5.00 to 5.70"}
{"smiles": "CCOC(=O)NCC1CCCN(c2nc(-c3ccccc3O)nc3cc(C)ccc23)C1", "note": "(centres unmarked) [Example 251, Ethyl (1-(2-(2-hydroxyphenyl)-7-methylquinazolin-4-yl)piperidin-3-yl)methylcarbamate]", "pIC50": "5.00 to 5.70"}
{"smiles": "Cc1ccc2c(N3CCN(C(=O)[C@H](O)CC(N)=O)CC3)nc(-c3ccccc3O)nc2c1", "note": "[Example 154, (R)-3-Hydroxy-4-(4-(2-(2-hydroxyphenyl)-7-methylquinazolin-4-yl)piperazin-1-yl)-4-oxobutanamide]", "pIC50": "< 5.00"}
{"smiles": "Cc1ccc2c(N3CCN(C(=O)[C@H](O)CC(C)C)[C@@H](CO)C3)nc(-c3ccccc3O)nc2c1", "note": "[Example 106, (R)-2-Hydroxy-1-((R)-2-(hydroxymethyl)-4-(2-(2-hydroxyphenyl)-7-methylquinazolin-4-yl)piperazin-1-yl)-4-methylpentan-1-one]", "pIC50": "< 5.00"}
{"smiles": "Cc1ccc2c(N3CCC[C@@H](CNC(=O)OCC(C)C)C3)nc(-c3ccccc3O)nc2c1", "note": "[Example 252, Isobutyl ((S)-1-(2-(2-hydroxyphenyl)-7-methylquinazolin-4-yl)piperidin-3-yl)methylcarbamate]", "pIC50": "< 5.00"}
{"smiles": "Cc1ccc2c(N3CC[C@@H](NC(=O)c4cccnc4)C3)nc(-c3ccccc3O)nc2c1", "note": "[Example 328, N—((R)-1-(2-(2-Hydroxyphenyl)-7-methylquinazolin-4-yl)pyrrolidin-3-yl)nicotinamide]", "pIC50": "< 5.00"}
{"smiles": "Cc1ccc2c(N3CCN(C(=O)C(O)CCl)CC3)nc(-c3ccccc3O)nc2c1", "note": "(centres unmarked) [Example 179, 3-Chloro-2-hydroxy-1-(4-(2-(2-hydroxyphenyl)-7-methylquinazolin-4-yl)piperazin-1-yl)propan-1-one]", "pIC50": "< 5.00"}
{"smiles": "Cc1ccc2c(N3CCC[C@@H](CNC(=O)C4CC4)C3)nc(-c3ccccc3O)nc2c1", "note": "[Example 226, N—(((S)-1-(2-(2-Hydroxyphenyl)-7-methylquinazolin-4-yl)piperidin-3-yl)methyl)cyclopropanecarboxamide]", "pIC50": "< 5.00"}
{"smiles": "Cc1ccc2c(N3CCN(C(=O)C(O)C(C)C)CC3)nc(-c3ccccc3O)nc2c1", "note": "(centres unmarked) [Example 113, 2-Hydroxy-1-(4-(2-(2-hydroxyphenyl)-7-methylquinazolin-4-yl)piperazin-1-yl)-3-methylbutan-1-one]", "pIC50": "5.00 to 5.70"}
{"smiles": "Cc1ccc2c(N3CC[C@@H](NC(=O)c4cccc(N(C)C)c4)C3)nc(-c3ccccc3O)nc2c1", "note": "[Example 342, 3-(Dimethylamino)-N—((R)-1-(2-(2-hydroxyphenyl)-7-methylquinazolin-4-yl)pyrrolidin-3-yl)benzamide]", "pIC50": "< 5.00"}
{"smiles": "Cc1ccc2c(N3CCN(C(=O)C(O)c4ccc(F)cc4)CC3)nc(-c3ccccc3O)nc2c1", "note": "(centres unmarked) [Example 170, 2-(4-Fluorophenyl)-2-hydroxy-1-(4-(2-(2-hydroxyphenyl)-7-methylquinazolin-4-yl)piperazin-1-yl)ethanone]", "pIC50": "< 5.00"}
{"smiles": "Cc1ccc2c(N3CC[C@H](CNC(=O)O[C@H]4CCOC4)C3)nc(-c3ccccc3O)nc2c1", "note": "[Example 307, (S)-Tetrahydrofuran-3-yl ((R)-1-(2-(2-hydroxyphenyl)-7-methylquinazolin-4-yl)pyrrolidin-3-yl)methylcarbamate]", "pIC50": "< 5.00"}
{"smiles": "CCCCC(O)C(=O)N1CCN(c2nc(-c3ccccc3O)nc3ccccc23)CC1", "note": "(centres unmarked) [Example 159, 2-Hydroxy-1-(4-(2-(2-hydroxyphenyl)quinazolin-4-yl)piperazin-1-yl)hexan-1-one]", "pIC50": "5.00 to 5.70"}
{"smiles": "Cc1ccc2c(N3CC[C@@H](NC(=O)C(O)c4ccc(F)cc4)C3)nc(-c3ccccc3O)nc2c1", "note": "(stereo partly drawn) [Example 360, 2-(4-Fluorophenyl)-2-hydroxy-N—((R)-1-(2-(2-hydroxyphenyl)-7-methylquinazolin-4-yl)pyrrolidin-3-yl)acetamide]", "pIC50": "< 5.00"}
{"smiles": "Cc1ccc2c(N3CCC(NC(=O)[C@@H]4CCCO4)CC3)nc(-c3ccccc3O)nc2c1", "note": "[Example 277]", "pIC50": "5.00 to 5.70"}
{"smiles": "Cc1ccc2c(N3CC[C@@H](NC(=O)[C@H](O)CC(C)(C)C)C3)nc(-c3ccccc3O)nc2c1", "note": "[Example 361, (2R)-2-Hydroxy-N—((R)-1-(2-(2-Hydroxyphenyl)-7-methylquinazolin-4-yl)pyrrolidin-3-yl)-4,4-dimethylpentanamide]", "pIC50": "5.00 to 5.70"}
